“Also recorded” adds a separate entry of the source.
Tests used:
[1] = system: P. aeruginosa PA103; assay: Wound model of infection with PA103 in diabetic db/db mice; type: in vivo; conditions: for infection control against P. aeruginosa in diabetic wounds infected with PA103: 10^6 PA103, topical at time of surgery & infection, 24 h, FIG. 2D
Protocol: (§1) The implant model of infection in C57B mice was used for 10^6 PA103 (FIG. 2A) or 10^6 USA300 MRSA (FIG. 2C). The wound model of infection was used for 10^6 PA103 in C57BL mice (FIG. 2B) or diabetic db/db mice (FIG. 2D). Infection was carried out at the time of surgery by adding bacteria directly to the surgical sites. Immunomodulators, namely, LPS (10 ng or 100 ng), fMLP (10 ng or 100 ng), CCL3 (1 μg) were added topically at the surgical sites at the time of surgery & infection. GM-CSF (10 μg/kg), tobramycin (Tob at 3.5 mg/kg), and vancomycin (40 mg/kg) were added systemically by i.p. injection 1 h before surgical implantation and infection. Infection levels were determined 24 h following infection (N>4 animals/group; NS=not significant, * p<0.01, ** p<0.001, ***p<0.0001 One-way ANOVA).
(§2) We assessed these immunomodulators for their ability to control wound and/or implant SS's in normal (C57BL/6) or diabetic (db/db) mice. We acknowledge that diabetic individuals are not as immunocompromised as other immunocompromised patient groups. […] All immunomodulators were added locally at the surgical sites at the time of infection, except GM-CSF (10 μg/kg) which was administered systemically by i.p. injection 1 h prior to surgery per its FDA-approved route of delivery. […] CCL3 and GM-CSF are also tested using the implant model of infection. Here, we tested CCL3 and GM-CSF in the wound model of infection in C57B mice.
Implant surgery and wound surgery and surgical site infection are performed according to the following method. On the day of surgery, all mice are anesthetized by an intraperitoneal injection of a ketamine/xylazine mixture (90 mg/kg ketamine+5 mg/kg xylazine for mice). The back of the animals is shaved using an electric shave and scrubbed with alcohol swabs 3 times, a topical antiseptic solution (Hibiclens; chlorhexidine gluconate) is applied to the skin. The surgical procedures are performed with sterile instruments, sterile surgical gloves, and aseptic techniques as follows. For wound surgical procedure, a sterile biopsy punch (5-7 mm diameter) is used to punch through the full thickness of the back skin below the shoulder blades. Four 5-7 mm skin wounds are made on the back of each mouse. Wounds placed in this area cannot be reached by the animals and therefore are protected from self-licking. For implant surgery, a 4-mm long lateral skin incision is made on the upper back, and the skin is retracted. The space above the muscle is opened using blunt dissection with fine forceps, to create a rostral fascia indentation. Then, immunomodulators at indicated concentrations (in a 20 μL volume) or PBS control are injected into the fascia indentation. After a 1 min wait for fluid to be absorbed, a disc implant, (1.87 mm diameter, 0.68 mm thick (Part # VP 724F-1)), is inserted in the fascia indentation. […] For implant surgery, the fascia indentation is left open, while the skin is closed with 4-0 nylon sutures. The fascia above the back muscles in mice is too thin and fragile to allow it to be sutured closed around the implant.

[2] = system: inflammatory cytokines; assay: Production of inflammatory cytokines in normal wound; type: in vivo, mice
Protocol: FIGS. 7A and 7B illustrate that CCL3 treatment increases the production of inflammatory cytokines in a normal wound. N=4; Significance determined as compared to PBS *<0.05, **p<0.01, ***p<0.001.
FIGS. 8A and 8B illustrate that LPS and fMLP treatment increases the production of inflammatory cytokines in a normal wound. N=4; LPS (10 ng) and fMLP (100 nM) directly added to wounds at the time of infection after wounding. Significance determined as compared to PBS *<0.05, **p<0.01.
Tissue-Tek O.C.T. (Sakura); Lysing Matrix D (MP Biomedicals); Collagenase (Roche Diagnostics), Hematoxylin and eosin (H&E); DNase 1 (Sigma-Aldrich); Hyluronidase, Streptozotocin (Sigma-Aldrich); Trizol (Invitrogen); CD45 antibody (eBioscience, Inc); Ly6C; Ly6G; CD11b; CD3 (BioLegend); CD68; GAPDH (Sigma-Aldrich). Ly6G and CD68 (Abcam); Primer pairs for GAPDH were from Qiagen. Masson's trichrome stain (Sigma-Aldrich); Picrosirius red (Abcam); Fibronectin (Chemicon International); Insulin slow-release capsules (Linplant; LinShin, Toronto, Canada) CCL3 (R&D Systems) fMLP (Sigma-Aldrich); II-1β ELISA (R&D Systems); TNF-α ELISA (R&D Systems).

[3] = system: P. aeruginosa PA103; assay: Wound model of infection with PA103 in normal (C57BL) mice; type: in vivo; conditions: for infection control against P. aeruginosa PA103 in normal wounds: C57B mice, immunomodulator added locally at time of infection, compared to PBS, FIGS. 3A, 4A, 4B, 6A
Protocol: as §1
(15A) C57BL/6 mice received 40 mg/kg prophylaxis (Sys) vancomycin (Vanc) or 3.5 mg/kg tobramycin (Tobra) by i.p. injection. (15A) 1 h after antibiotic administration, 106 CFU of USA300 was added to implant after insertion into facia (Implant Model). (15B) 1 h after antibiotic administration, 10^6CFU of USA300 or 106CFU PA103 (Pa) were added full-thickness wounds in of C57BL/6 (Wound Model). Infection levels at implant surgical site (Tissue & Implant) or a distant site (Spleen), or wound tissues were assessed 24 h following infection. (N>4 animals/group, * p<0.01, ***p<0.0001, One-way ANOVA).
as §2
Implant surgery and wound surgery and surgical site infection are performed according to the following method. On the day of surgery, all mice are anesthetized by an intraperitoneal injection of a ketamine/xylazine mixture (90 mg/kg ketamine+5 mg/kg xylazine for mice). The back of the animals is shaved using an electric shave and scrubbed with alcohol swabs 3 times, a topical antiseptic solution (Hibiclens; chlorhexidine gluconate) is applied to the skin. The surgical procedures are performed with sterile instruments, sterile surgical gloves, and aseptic techniques as follows. For wound surgical procedure, a sterile biopsy punch (5-7 mm diameter) is used to punch through the full thickness of the back skin below the shoulder blades. Four 5-7 mm skin wounds are made on the back of each mouse. Wounds placed in this area cannot be reached by the animals and therefore are protected from self-licking. For implant surgery, a 4-mm long lateral skin incision is made on the upper back, and the skin is retracted. The space above the muscle is opened using blunt dissection with fine forceps, to create a rostral fascia indentation. Then, immunomodulators at indicated concentrations (in a 20 μL volume) or PBS control are injected into the fascia indentation.

[4] = LPS (10 ng) and fMLP (100 nM) directly added to wounds at the time of infection after wounding, FIGS. 8A and 8B

Molecule | infection control against P. aeruginosa in diabetic wounds infected with PA103 ([1]; db/db mice) | production of inflammatory cytokines in a normal wound [2, 4] | infection control against P. aeruginosa PA103 in normal wounds [3] | antimicrobial defenses in diabetic wounds against P. aeruginosa ([1]; compared to PBS, FIG. 13A) | infection control in diabetic wounds ([1]; P. aeruginosa PA103 10^3, compared to PBS, FIG. 11A) | infection control in diabetic animals, compared with LPS or fMLP ([1]; db/db mice, PA103, FIG. 2D) | production of inflammatory cytokines in a normal wound ([2]; CCL3 treatment, compared to PBS, FIGS. 7A and 7B) | controlling PA103 infection, compared with prophylaxis tobramycin ([3]; C57B mice wound model, topical CCL3 1 μg, both at 10^3 and 10^6 CFU, tobramycin 3.5 mg/kg i.p., FIG. 2B)
CSCC[C@H](NC=O)C(=O)N[C@@H](CC(C)C)C(=O)N[C@@H](Cc1ccccc1)C(=O)O [fMLP, N-Formylmethionyl-leucyl-phenylalanine] | significantly improved | increases | enhance; also recorded: significantly improved | – | – | – | – | –
lipopolysaccharide [LPS] | significantly improved | increases | enhance; also recorded: significantly improved | increases | – | – | – | –
Chemokine (C-C motif) ligand 3 (protein, listed as Homo sapiens, class 1 immunomodulator) MQVSTAALAVLLCTMALCNQFSASLAADTPTACCFSYTSRQIPQNFIADYFETSSQCSKPGVIFLTKRSRQVCADPSEEWVQKYVSDLELSA | significantly improved | – | enhances; also recorded: effective | – | increases | significantly more effective | increases | as effective

From US20210268070A1, “Use of Immunomodulators to Control Infection and Stimulate Healing in Normal and Diabetic Wounds” (priority 2018, published 2021)
